We go through one compound from ChEMBL document CHEMBL1641363, “Fragment-based discovery of 6-substituted isoquinolin-1-amine based ROCK-I inhibitors” (Bioorg Med Chem Lett, 2011).

Data set [1] has as its target T1, Serine/threonine-protein kinase Sgk2 (Homo sapiens) (UniProt Q9HBY8).
T1 sequence (whole entry): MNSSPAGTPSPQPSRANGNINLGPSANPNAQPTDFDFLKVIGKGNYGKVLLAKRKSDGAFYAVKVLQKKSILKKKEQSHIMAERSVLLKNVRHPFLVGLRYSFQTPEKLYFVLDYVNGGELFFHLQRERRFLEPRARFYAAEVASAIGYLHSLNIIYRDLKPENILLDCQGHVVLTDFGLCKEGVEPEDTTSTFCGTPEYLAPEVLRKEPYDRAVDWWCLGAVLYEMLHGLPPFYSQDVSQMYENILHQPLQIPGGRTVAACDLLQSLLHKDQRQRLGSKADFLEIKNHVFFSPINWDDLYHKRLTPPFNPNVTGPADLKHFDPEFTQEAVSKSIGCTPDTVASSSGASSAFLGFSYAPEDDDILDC
Particulars: 10 uM.
Description: Inhibition of SGK2 at 10 uM

A short description of data set [2]: Permeability from apical to basolateral side of human Caco2 cells. The format is ADME, cell-based. The note with it: Caco-2, read-out: permeability. A general note: Caco-2 monolayers are a common model of the intestinal barrier.
Data set [3] concerns the target T2, Dual specificity tyrosine-phosphorylation-regulated kinase 3 (Homo sapiens) (UniProt O43781).
T2 sequence (whole entry): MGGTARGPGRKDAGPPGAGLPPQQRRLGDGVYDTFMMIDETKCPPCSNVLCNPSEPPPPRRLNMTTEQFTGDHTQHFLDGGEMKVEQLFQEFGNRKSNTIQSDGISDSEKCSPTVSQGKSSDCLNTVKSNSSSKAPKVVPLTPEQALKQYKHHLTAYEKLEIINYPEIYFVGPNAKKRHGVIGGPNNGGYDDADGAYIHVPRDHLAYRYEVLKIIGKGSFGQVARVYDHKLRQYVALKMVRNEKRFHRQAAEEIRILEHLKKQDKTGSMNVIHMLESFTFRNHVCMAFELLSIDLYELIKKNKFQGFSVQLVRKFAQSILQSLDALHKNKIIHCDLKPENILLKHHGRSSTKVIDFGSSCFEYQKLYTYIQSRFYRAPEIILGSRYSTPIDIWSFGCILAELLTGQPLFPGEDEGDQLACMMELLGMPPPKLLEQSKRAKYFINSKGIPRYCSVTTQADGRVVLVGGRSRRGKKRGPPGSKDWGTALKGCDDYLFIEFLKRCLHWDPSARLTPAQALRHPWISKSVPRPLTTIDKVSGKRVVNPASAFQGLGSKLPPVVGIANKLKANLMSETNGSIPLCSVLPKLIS
Particulars: 10 uM.
Description: Inhibition of DYRK3 at 10 uM

In data set [4] the target is Casein kinase I isoform alpha (Homo sapiens) (UniProt P48729). The note with it: 10 uM.
Sequence of Casein kinase I isoform alpha (Homo sapiens) (P48729 2-337 limits assumed): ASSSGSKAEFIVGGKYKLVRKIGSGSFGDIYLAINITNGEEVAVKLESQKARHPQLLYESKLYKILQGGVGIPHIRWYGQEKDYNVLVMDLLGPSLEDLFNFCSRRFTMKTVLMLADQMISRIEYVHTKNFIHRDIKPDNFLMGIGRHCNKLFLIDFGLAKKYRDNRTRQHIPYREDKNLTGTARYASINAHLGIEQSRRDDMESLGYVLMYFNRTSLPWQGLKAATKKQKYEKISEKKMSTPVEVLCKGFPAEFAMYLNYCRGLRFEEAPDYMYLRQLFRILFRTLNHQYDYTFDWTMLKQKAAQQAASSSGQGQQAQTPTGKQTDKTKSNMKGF
Description: Inhibition of CK1 at 10 uM
A short description of data set [5]: Half life in rat liver microsome. The format is ADME. Particulars: liver microsomes.
Data set [6] addresses T3, Ephrin type-A receptor 8 (Homo sapiens) (UniProt P29322).
T3 sequence (whole entry): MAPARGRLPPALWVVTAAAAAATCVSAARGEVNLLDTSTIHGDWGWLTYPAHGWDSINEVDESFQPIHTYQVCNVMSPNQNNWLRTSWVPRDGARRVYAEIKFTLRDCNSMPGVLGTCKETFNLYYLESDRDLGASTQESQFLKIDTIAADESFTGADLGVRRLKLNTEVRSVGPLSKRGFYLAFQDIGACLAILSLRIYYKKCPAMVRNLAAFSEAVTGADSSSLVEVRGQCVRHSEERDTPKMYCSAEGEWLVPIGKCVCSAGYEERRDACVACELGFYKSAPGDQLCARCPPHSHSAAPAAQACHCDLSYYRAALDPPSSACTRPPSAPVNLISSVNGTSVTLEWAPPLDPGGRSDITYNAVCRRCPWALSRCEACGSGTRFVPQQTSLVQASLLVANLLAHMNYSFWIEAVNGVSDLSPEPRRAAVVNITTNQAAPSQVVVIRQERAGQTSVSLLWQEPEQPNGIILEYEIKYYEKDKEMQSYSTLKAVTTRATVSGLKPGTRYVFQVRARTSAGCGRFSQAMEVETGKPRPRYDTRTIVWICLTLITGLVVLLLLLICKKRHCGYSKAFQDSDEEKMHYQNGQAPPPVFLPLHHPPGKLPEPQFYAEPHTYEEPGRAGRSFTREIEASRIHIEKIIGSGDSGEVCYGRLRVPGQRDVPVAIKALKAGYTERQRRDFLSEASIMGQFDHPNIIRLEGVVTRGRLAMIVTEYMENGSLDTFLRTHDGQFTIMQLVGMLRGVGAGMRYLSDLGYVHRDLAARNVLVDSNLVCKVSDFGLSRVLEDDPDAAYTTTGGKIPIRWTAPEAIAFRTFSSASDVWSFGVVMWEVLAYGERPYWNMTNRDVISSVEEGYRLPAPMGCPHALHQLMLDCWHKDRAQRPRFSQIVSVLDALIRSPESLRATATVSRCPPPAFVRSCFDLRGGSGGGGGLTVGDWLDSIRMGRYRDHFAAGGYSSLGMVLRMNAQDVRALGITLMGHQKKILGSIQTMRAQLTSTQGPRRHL
Particulars: 10 uM.
Description: Inhibition of EPHA8 at 10 uM

For data set [7], the target named is Tyrosine-protein kinase Fes/Fps (Homo sapiens) (UniProt P07332). Particulars: 10 uM.
Sequence of Tyrosine-protein kinase Fes/Fps (Homo sapiens) (P07332 whole entry): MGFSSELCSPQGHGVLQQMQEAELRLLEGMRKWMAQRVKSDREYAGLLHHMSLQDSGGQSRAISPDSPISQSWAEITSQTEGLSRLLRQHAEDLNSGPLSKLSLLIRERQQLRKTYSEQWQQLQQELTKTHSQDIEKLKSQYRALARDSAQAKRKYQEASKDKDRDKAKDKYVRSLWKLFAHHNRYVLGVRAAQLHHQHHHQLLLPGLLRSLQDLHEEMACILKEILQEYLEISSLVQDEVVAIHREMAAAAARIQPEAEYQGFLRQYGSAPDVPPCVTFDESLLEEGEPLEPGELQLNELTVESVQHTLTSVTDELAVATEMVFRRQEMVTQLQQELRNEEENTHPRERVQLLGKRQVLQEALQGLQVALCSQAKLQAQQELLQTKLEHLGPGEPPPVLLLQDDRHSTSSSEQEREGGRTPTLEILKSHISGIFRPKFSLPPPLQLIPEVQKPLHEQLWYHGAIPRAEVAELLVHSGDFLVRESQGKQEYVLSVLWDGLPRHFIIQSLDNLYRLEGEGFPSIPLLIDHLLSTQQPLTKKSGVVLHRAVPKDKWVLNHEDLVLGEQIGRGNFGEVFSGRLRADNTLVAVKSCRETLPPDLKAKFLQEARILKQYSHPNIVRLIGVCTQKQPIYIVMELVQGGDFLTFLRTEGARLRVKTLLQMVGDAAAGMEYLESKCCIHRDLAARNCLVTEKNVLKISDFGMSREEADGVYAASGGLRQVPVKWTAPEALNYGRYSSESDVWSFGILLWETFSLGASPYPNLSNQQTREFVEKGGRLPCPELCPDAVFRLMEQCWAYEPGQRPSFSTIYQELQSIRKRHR
Description: Inhibition of FES at 10 uM

Bounds are passed on as bounds.

With `Nc1nccc2cc(O[C@H]3CCCNC3)ccc12`, the inhibition in data set [1], in data set [3], in data set [4], in data set [6] and in data set [7] was above 80% each time. Besides, the Papp A→B in data set [2] came out at 6.3 ×10⁻⁶ cm/s. For the same compound, the half-life (usually the time needed for the level to fall by half in the phase considered) in data set [5] is above 2 h.
